Test results from ChEMBL document CHEMBL5463723, “Data for DCP probe BIBO3304” (2023).

Columns and labels:
[1] = molecular target: T1, Neuropeptide Y receptor type 2 (Homo sapiens, UniProt P49146); assay: Radioligand binding assay (NPY2R, SMS-KAN cells); format: cell-based
T1 sequence (P49146 whole entry): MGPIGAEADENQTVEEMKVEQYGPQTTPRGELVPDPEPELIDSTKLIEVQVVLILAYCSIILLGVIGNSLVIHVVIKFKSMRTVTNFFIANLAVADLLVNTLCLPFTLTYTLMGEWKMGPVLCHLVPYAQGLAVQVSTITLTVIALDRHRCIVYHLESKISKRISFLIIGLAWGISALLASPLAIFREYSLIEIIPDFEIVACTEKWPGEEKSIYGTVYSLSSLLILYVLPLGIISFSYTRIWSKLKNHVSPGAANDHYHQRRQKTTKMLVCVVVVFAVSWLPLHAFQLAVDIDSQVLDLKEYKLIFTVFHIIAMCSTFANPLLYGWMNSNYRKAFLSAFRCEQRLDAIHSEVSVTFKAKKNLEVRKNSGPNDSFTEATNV

[2] = molecular target: Neuropeptide Y receptor type 4 (Rattus norvegicus, UniProt Q63447); assay: Radioligand binding assay (rat NPY4R, CHO cells); format: cell-based
Sequence of Neuropeptide Y receptor type 4 (Rattus norvegicus, UniProt Q63447) (Q63447 whole entry): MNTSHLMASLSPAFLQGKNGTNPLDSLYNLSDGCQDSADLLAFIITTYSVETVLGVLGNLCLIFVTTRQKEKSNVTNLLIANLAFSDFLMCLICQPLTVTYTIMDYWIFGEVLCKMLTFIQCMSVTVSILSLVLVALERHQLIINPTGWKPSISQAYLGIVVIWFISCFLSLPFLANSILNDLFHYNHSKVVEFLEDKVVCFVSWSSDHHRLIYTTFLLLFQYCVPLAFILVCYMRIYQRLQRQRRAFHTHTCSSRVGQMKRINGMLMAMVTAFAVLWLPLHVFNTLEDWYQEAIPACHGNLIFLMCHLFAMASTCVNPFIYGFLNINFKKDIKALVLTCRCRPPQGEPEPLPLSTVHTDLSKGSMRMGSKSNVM

[3] = molecular target: Neuropeptide Y receptor type 5 (Homo sapiens, UniProt Q15761); assay: Radioligand binding assay (human NPY5R, HEK293); format: cell-based
Sequence of Neuropeptide Y receptor type 5 (Homo sapiens, UniProt Q15761) (Q15761 whole entry): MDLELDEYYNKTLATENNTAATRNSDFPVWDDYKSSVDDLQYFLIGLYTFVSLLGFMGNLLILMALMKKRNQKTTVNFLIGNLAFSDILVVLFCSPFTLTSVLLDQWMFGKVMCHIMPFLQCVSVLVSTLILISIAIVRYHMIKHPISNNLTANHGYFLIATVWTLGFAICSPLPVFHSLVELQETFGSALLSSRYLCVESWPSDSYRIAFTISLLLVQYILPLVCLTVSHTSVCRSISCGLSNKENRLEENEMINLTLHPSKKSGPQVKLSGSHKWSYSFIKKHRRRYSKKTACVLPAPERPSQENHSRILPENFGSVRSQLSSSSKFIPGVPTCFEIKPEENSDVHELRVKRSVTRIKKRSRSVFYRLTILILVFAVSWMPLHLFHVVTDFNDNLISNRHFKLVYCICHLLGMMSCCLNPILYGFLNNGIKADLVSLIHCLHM

[4] = molecular target: Neuropeptide Y receptor type 5 (Rattus norvegicus, UniProt Q63634); assay: Radioligand binding assay (rat NPY5R, CHO cells); format: cell-based
Sequence of Neuropeptide Y receptor type 5 (Rattus norvegicus, UniProt Q63634) (Q63634 whole entry): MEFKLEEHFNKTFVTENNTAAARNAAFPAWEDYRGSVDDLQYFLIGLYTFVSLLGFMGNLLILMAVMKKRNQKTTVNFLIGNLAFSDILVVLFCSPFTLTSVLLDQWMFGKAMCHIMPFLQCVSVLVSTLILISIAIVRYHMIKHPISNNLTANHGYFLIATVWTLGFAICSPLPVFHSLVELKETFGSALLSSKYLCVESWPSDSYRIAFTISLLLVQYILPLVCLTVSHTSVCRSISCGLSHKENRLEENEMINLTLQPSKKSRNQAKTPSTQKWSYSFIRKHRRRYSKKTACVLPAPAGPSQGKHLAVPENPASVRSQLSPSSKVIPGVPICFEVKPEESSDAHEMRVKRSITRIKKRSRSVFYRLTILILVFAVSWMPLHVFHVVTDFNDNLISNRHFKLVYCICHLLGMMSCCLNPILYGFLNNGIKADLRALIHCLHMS

[5] = molecular target: T1, Neuropeptide Y receptor type 2; assay: Radioligand binding assay (NPY2R, BHK); format: cell-based, BHK-21
[6] = molecular target: Neuropeptide Y receptor type 4 (Homo sapiens, UniProt P50391); assay: Radioligand binding assay (human NPY4R, CHO cells); format: cell-based
Sequence of Neuropeptide Y receptor type 4 (Homo sapiens, UniProt P50391) (P50391 whole entry): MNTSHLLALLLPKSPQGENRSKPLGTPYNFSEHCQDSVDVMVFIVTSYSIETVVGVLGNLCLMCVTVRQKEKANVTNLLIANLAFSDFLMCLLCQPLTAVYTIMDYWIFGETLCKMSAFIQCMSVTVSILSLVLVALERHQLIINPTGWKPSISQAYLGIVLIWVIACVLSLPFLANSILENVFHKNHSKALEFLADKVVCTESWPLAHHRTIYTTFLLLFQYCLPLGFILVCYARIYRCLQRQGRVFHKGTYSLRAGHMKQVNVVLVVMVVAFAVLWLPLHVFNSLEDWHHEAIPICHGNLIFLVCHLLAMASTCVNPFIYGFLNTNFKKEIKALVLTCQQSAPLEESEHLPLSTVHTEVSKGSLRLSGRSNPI

In the case of `N=C(N)NCCC[C@H](NC(=O)C(c1ccccc1)c1ccccc1)C(=O)NCc1ccc(CNC(N)=O)cc1`, the IC50 [1] is reported as > 10 µM (not active), the IC50 [2] is reported as > 10 µM (not active) and the IC50 [3] is reported as 28 µM (not active). For the same molecule, the IC50 [4] was 23 µM (not active), the IC50 [5] was > 10 µM (not active) and the IC50 [6] was 24 µM (not active).
